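These data come from cells grown in 96-well plates and exposed to compound for 48 hours at five concentrations. Abbreviation: GI50, concentration required for 50% inhibition of growth. TGI is the concentration that stops growth completely.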
Columns and labels:
Test in all cases: NCI-60 cell line screen, 48 h
786-0 renal = system: 786-0 renal
A498 renal = system: A498 renal
A549 NSCLC = system: A549 NSCLC
ACHN renal = system: ACHN renal
BT-549 breast = system: BT-549 breast
CAKI-1 renal = system: CAKI-1 renal
CCRF-CEM leukemia = system: CCRF-CEM leukemia
COLO 205 colon = system: COLO 205 colon
DU-145 prostate = system: DU-145 prostate
EKVX NSCLC = system: EKVX NSCLC
HCC-2998 colon = system: HCC-2998 colon
HCT-116 colon = system: HCT-116 colon
HCT-15 colon = system: HCT-15 colon
HL-60(TB) leukemia = system: HL-60(TB) leukemia
HOP-62 NSCLC = system: HOP-62 NSCLC
HOP-92 NSCLC = system: HOP-92 NSCLC
HS 578T breast = system: HS 578T breast
HT29 colon = system: HT29 colon
IGROV1 ovarian = system: IGROV1 ovarian
K-562 leukemia = system: K-562 leukemia
KM12 colon = system: KM12 colon
LOX IMVI melanoma = system: LOX IMVI melanoma
M14 melanoma = system: M14 melanoma
MALME-3M melanoma = system: MALME-3M melanoma
MCF7 breast = system: MCF7 breast
MDA-MB-231 breast = system: MDA-MB-231 breast
MDA-MB-435 = system: MDA-MB-435
MDA-MB-468 breast = system: MDA-MB-468 breast
MOLT-4 leukemia = system: MOLT-4 leukemia
NCI-H226 lung = system: NCI-H226 lung
NCI-H23 lung = system: NCI-H23 lung
NCI-H460 lung = system: NCI-H460 lung
NCI-H522 lung = system: NCI-H522 lung
NCI/ADR-RES ovarian = system: NCI/ADR-RES ovarian
OVCAR-3 ovarian = system: OVCAR-3 ovarian
OVCAR-4 ovarian = system: OVCAR-4 ovarian
OVCAR-5 ovarian = system: OVCAR-5 ovarian
OVCAR-8 ovarian = system: OVCAR-8 ovarian
PC-3 prostate = system: PC-3 prostate
RPMI-8226 leukemia = system: RPMI-8226 leukemia
RXF 393 renal = system: RXF 393 renal
SF-268 CNS = system: SF-268 CNS
SF-295 CNS = system: SF-295 CNS
SF-539 CNS = system: SF-539 CNS
SK-MEL-2 melanoma = system: SK-MEL-2 melanoma
SK-MEL-28 melanoma = system: SK-MEL-28 melanoma
SK-MEL-5 melanoma = system: SK-MEL-5 melanoma
SK-OV-3 ovarian = system: SK-OV-3 ovarian
SN12C renal = system: SN12C renal
SNB-19 CNS = system: SNB-19 CNS
SNB-75 CNS = system: SNB-75 CNS
SR leukemia = system: SR leukemia
SW-620 colon = system: SW-620 colon
T-47D breast = system: T-47D breast
TK-10 renal = system: TK-10 renal
U251 CNS = system: U251 CNS
UACC-257 melanoma = system: UACC-257 melanoma
UACC-62 melanoma = system: UACC-62 melanoma
UO-31 renal = system: UO-31 renal

COc1csc(/C=N/NC(=O)c2[nH]c3ccc(Br)cc3c2-c2ccccc2)c1
GI50 (786-0 renal): 85.1 nM
TGI (786-0 renal): 9.69 µM
GI50 (A498 renal): 24 µM
TGI (A498 renal): 70.1 µM
GI50 (A549 NSCLC): 39.3 nM
TGI (A549 NSCLC): 22 µM
GI50 (ACHN renal): 63.4 nM
TGI (ACHN renal): 34.7 µM
GI50 (BT-549 breast): 30.5 nM
TGI (BT-549 breast): 354 nM
GI50 (CAKI-1 renal): 111 nM
TGI (CAKI-1 renal): 34.6 µM
GI50 (CCRF-CEM leukemia): 29.9 nM
TGI (CCRF-CEM leukemia): 1020 nM
GI50 (COLO 205 colon): 26.5 nM
TGI (COLO 205 colon): 70.3 nM
GI50 (DU-145 prostate): 36.8 nM
TGI (DU-145 prostate): 11.5 µM
GI50 (EKVX NSCLC): 86.3 nM
TGI (EKVX NSCLC): > 100 µM
GI50 (HCC-2998 colon): 89.4 nM
TGI (HCC-2998 colon): 17.3 µM
GI50 (HCT-116 colon): 30.5 nM
TGI (HCT-116 colon): 1150 nM
GI50 (HCT-15 colon): 33.2 nM
TGI (HCT-15 colon): 14.8 µM
GI50 (HL-60(TB) leukemia): 30.2 nM
TGI (HL-60(TB) leukemia): 180 nM
GI50 (HOP-62 NSCLC): 79.4 nM
TGI (HOP-62 NSCLC): 10.5 µM
GI50 (HOP-92 NSCLC): 920 nM
TGI (HOP-92 NSCLC): 51.2 µM
GI50 (HS 578T breast): 34.6 nM
TGI (HS 578T breast): 22.7 µM
GI50 (HT29 colon): 26.7 nM
TGI (HT29 colon): 69.1 nM
GI50 (IGROV1 ovarian): 77.8 nM
TGI (IGROV1 ovarian): 17.8 µM
GI50 (K-562 leukemia): 30.5 nM
TGI (K-562 leukemia): 13.1 µM
GI50 (KM12 colon): 37.3 nM
TGI (KM12 colon): 10.9 µM
GI50 (LOX IMVI melanoma): 30.2 nM
TGI (LOX IMVI melanoma): 18.9 µM
GI50 (M14 melanoma): 29.2 nM
TGI (M14 melanoma): 22.5 µM
GI50 (MALME-3M melanoma): 45.3 nM
TGI (MALME-3M melanoma): 20.5 µM
GI50 (MCF7 breast): 28 nM
TGI (MCF7 breast): 12.7 µM
GI50 (MDA-MB-231 breast): 26.4 nM
TGI (MDA-MB-231 breast): 69.3 nM
GI50 (MDA-MB-435): 27.2 nM
TGI (MDA-MB-435): 98.5 nM
GI50 (MDA-MB-468 breast): 23.2 nM
TGI (MDA-MB-468 breast): 65.1 nM
GI50 (MOLT-4 leukemia): 46.3 nM
TGI (MOLT-4 leukemia): > 37.4 µM
GI50 (NCI-H226 lung): 315 nM
TGI (NCI-H226 lung): 2160 nM
GI50 (NCI-H23 lung): 42.7 nM
TGI (NCI-H23 lung): 17 µM
GI50 (NCI-H460 lung): 34.6 nM
TGI (NCI-H460 lung): 10.6 µM
GI50 (NCI-H522 lung): < 13.8 nM
TGI (NCI-H522 lung): 41.3 nM
GI50 (NCI/ADR-RES ovarian): 23.8 nM
TGI (NCI/ADR-RES ovarian): 57.4 nM
GI50 (OVCAR-3 ovarian): 32.5 nM
TGI (OVCAR-3 ovarian): 720 nM
GI50 (OVCAR-4 ovarian): 5.42 µM
TGI (OVCAR-4 ovarian): > 100 µM
GI50 (OVCAR-5 ovarian): 47.5 nM
TGI (OVCAR-5 ovarian): 53.2 µM
GI50 (OVCAR-8 ovarian): 28.9 nM
TGI (OVCAR-8 ovarian): 2000 nM
GI50 (PC-3 prostate): 57.5 nM
TGI (PC-3 prostate): 48.8 µM
GI50 (RPMI-8226 leukemia): 39.1 nM
TGI (RPMI-8226 leukemia): 8.21 µM
GI50 (RXF 393 renal): 49.6 nM
TGI (RXF 393 renal): 906 nM
GI50 (SF-268 CNS): 48.8 nM
TGI (SF-268 CNS): > 54.2 µM
GI50 (SF-295 CNS): 30.3 nM
TGI (SF-295 CNS): 6.48 µM
GI50 (SF-539 CNS): 21.7 nM
TGI (SF-539 CNS): 53.1 nM
GI50 (SK-MEL-2 melanoma): 35.5 nM
TGI (SK-MEL-2 melanoma): 389 nM
GI50 (SK-MEL-28 melanoma): 1730 nM
TGI (SK-MEL-28 melanoma): 46.5 µM
GI50 (SK-MEL-5 melanoma): 26.3 nM
TGI (SK-MEL-5 melanoma): 76.9 nM
GI50 (SK-OV-3 ovarian): 51.9 nM
TGI (SK-OV-3 ovarian): 15.5 µM
GI50 (SN12C renal): 38.7 nM
TGI (SN12C renal): 9.1 µM
GI50 (SNB-19 CNS): 47 nM
TGI (SNB-19 CNS): 18.4 µM
GI50 (SNB-75 CNS): 100 nM
TGI (SNB-75 CNS): 3.78 µM
GI50 (SR leukemia): 23.5 nM
TGI (SR leukemia): 23.3 µM
GI50 (SW-620 colon): 42.4 nM
TGI (SW-620 colon): > 100 µM
GI50 (T-47D breast): 3.89 µM
TGI (T-47D breast): > 95.8 µM
GI50 (TK-10 renal): 13.2 µM
TGI (TK-10 renal): 43.6 µM
GI50 (U251 CNS): 32 nM
TGI (U251 CNS): 12.3 µM
GI50 (UACC-257 melanoma): 635 nM
TGI (UACC-257 melanoma): > 67.2 µM
GI50 (UACC-62 melanoma): 42 nM
TGI (UACC-62 melanoma): 16.7 µM
GI50 (UO-31 renal): 60.2 nM
TGI (UO-31 renal): > 100 µM

— PubChem BioAssay (NCI)
